The record followed here is patent US7211576B2, “Diaminothiazoles” (Hoffmann-La Roche Inc., priority 2004, dated 2007).

One assay concerns the target human cyclin E-CDK2 (Homo sapiens, UniProt P24941). Put plainly: FlashPlate kinase assay, cyclin E-CDK2. The format is biochemical. The note with it: Rb protein substrate, 1 μM ATP, 33P-ATP, 30 minutes room temperature.
The next assay deals with human cyclin D1-CDK4 (Homo sapiens, UniProt P11802). The assay is described as follows: FlashPlate kinase assay, cyclin D1-CDK4. The format is biochemical. The note with it: Rb protein substrate, 1 μM ATP, 33P-ATP, 30 minutes room temperature; read-out: CDK4 IC50.
The subject of assay [1] is HCT116, a colorectal carcinoma cell line. Put plainly: Tetrazolium dye (MTT) proliferation assay. In kind it is cell-based. The note with it: Homo sapiens, HCT-116; HCT116 cells, inhibition of cell proliferation. A digest of the protocol: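 Cells in McCoy's 5A with 10% FCS, seeded for log growth, dosed next day in duplicate (0.3% DMSO final) and incubated to time points set by growth curves at 37° C. MTT at 1 mg/ml for 2.5–3 h, formazan in ethanol, A570 minus 650 nm reference. IC50 by linear regression of log concentration versus % inhibition.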

The next assay deals with human cyclin B-CDK1 (Homo sapiens, UniProt P06493). The assay is described as follows: FlashPlate kinase assay, cyclin B-CDK1. The note with it: Rb protein substrate, 1 μM ATP, 33P-ATP, 30 minutes room temperature. In kind it is biochemical.
human cyclin B-CDK1, sequence (P06493 whole entry): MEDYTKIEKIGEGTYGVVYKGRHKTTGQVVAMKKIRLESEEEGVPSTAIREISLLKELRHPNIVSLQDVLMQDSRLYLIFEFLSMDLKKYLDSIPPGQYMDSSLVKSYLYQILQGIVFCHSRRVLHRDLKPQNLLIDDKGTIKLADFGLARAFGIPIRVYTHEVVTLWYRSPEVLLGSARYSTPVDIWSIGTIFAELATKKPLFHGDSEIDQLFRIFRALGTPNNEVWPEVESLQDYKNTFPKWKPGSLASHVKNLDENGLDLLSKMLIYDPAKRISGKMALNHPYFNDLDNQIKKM
human cyclin B-CDK1, sequence (P14635 whole entry partner): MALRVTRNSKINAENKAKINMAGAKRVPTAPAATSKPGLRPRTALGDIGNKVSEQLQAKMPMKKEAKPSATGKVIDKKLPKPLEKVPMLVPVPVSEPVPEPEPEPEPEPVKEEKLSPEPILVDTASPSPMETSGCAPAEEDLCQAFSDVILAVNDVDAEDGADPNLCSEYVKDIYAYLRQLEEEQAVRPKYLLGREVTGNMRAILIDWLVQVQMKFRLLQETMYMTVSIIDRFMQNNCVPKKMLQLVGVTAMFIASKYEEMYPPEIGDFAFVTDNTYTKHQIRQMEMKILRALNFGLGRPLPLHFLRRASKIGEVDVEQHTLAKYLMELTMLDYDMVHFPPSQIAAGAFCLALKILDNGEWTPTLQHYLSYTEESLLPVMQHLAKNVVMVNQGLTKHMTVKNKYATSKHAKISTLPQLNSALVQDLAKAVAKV

human cyclin D1-CDK4, sequence (P11802 whole entry): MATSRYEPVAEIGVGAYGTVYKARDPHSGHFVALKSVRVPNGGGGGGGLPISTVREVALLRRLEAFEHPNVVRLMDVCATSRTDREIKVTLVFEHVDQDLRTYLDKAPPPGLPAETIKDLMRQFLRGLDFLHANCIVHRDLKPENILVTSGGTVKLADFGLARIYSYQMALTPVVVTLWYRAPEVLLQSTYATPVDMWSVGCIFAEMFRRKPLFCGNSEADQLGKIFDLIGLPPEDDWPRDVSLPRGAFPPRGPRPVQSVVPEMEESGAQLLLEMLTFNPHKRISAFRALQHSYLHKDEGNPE
human cyclin D1-CDK4, sequence (P24385 whole entry partner): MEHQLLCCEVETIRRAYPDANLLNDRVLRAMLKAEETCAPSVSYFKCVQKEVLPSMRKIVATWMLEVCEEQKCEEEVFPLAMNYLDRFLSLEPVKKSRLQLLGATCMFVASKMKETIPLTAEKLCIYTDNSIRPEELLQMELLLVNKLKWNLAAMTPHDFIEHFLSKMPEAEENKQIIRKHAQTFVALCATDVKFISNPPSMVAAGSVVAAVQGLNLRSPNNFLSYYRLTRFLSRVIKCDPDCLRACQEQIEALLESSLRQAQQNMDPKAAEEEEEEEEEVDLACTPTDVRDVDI

As for `Nc1nc(Nc2ccc(N3CCC(N4CCCCC4)CC3)cc2)sc1C(=O)c1ccc2c(c1)OCO2` [Example 32, [4-Amino-2-(4-[1,4′]bipiperidinyl-1′-yl-phenylamino)-thiazol-5-yl]-benzo[1,3]dioxol-5-yl-methanone], the IC50 at human cyclin E-CDK2 came out at 5740 nM; on human cyclin D1-CDK4, 29 nM; in assay [1], 6640 nM; against human cyclin B-CDK1, 1910 nM.
On to `CCNC1CCN(c2ccc(Nc3nc(N)c(C(=O)c4cccc(OC)c4)s3)cc2)C1` (stereo not drawn) [Example 134, {4-Amino-2-[4-(3-ethylamino-pyrrolidin-1-yl)-phenylamino]-thiazol-5-yl}-(3-methoxy-phenyl)-methanone], for which the half-maximal inhibitory concentration (IC50) against human cyclin E-CDK2 came to 4500 nM; at human cyclin D1-CDK4, 46 nM; in assay [1] it was 1240 nM; on human cyclin B-CDK1 it was 1330 nM.
`CCCc1cc(C(=O)c2sc(Nc3ccc(N4CCC(N5CCCC5)CC4)cc3)nc2N)ccc1O` [Example 123, {4-Amino-2-[4-(4-pyrrolidin-1-yl-piperidin-1-yl)-phenylamino]-thiazol-5-yl}-(4-hydroxy-3-propyl-phenyl)-methanone]: the IC50 against human cyclin E-CDK2 was found to be 200 nM; on human cyclin D1-CDK4 it was 14 nM; in assay [1] it was 1050 nM; on human cyclin B-CDK1 it was 345 nM.

As usually defined, the IC50 is the concentration needed to halve the response being measured.
